Assay results published in US11191754B2, “Inhibitors of nucleotidyl transferases and uses in herpes and hepatitis viral infections therefor” (Saint Louis University, priority 2015, dated 2021).

Experiments:
HBV RNAseH = assay: Biochemical RNAseH assay with patient-derived variant HBV RNAseH enzymes; set-up: species or system hepatitis B virus; settings: four genotype D patient-derived enzymes; compound at its IC50 (FIGS. 5A & 5B)
Protocol: RNaseH activity was measured using an oligonucleotide-directed RNA cleavage assay as previously described in Hu, et al., Tavis, et al., and Cai, et al. (2013; 2013; and 2014, respectfully). Briefly, 6 μL protein extract was mixed on ice with an internally ^32P-labeled 264 nt RNA derived from the Duck Hepatitis B Virus genome (DRF+ RNA) plus 3 μg oligonucleotide D2507- or its inverse-complement oligonucleotide D2526+ as a negative control. This mixture was incubated with test compounds in 50 mM Tris pH 8.0, 190 mM NaCl, 5 mM MgCl2, 3.5 mM DTT, 0.05% NP40, 6% glycerol, and 1% DMSO at 42° C. for 90 minutes. Cleavage products were resolved by denaturing polyacrylamide gel electrophoresis, detected by autoradiography, and quantified using ImageJ. Non-specific background values were determined from the incorrect oligonucleotide negative control lane and subtracted from all experimental values. IC50 values were then calculated with GraphPad Prism using three-parameter log(inhibitor) vs. response non-linear curve fitting with the curve minimum set to zero to reflect background subtraction.
HBV has 8 genotypes differing in sequence by 8%. Genetic diversity in the RNAseH domain is about 6%, which is easily high enough to modulate viral sensitivity to RNAseH inhibitors. […]

HBV [1] = assay: Chou-Talalay combination analysis with Lamivudine against HBV replication; type: cell-based, hepatitis B virus; settings: together with Lamivudine; CI <1.0 indicates synergy
Description: Current nucleos(t)ide analog therapy for HBV has converted hepatitis type B from an implacably progressing illness to a controllable disease. However, patients are only very rarely cured, in part due to the incomplete inhibition of HBV replication. The inventors hypothesized that the novel RNaseH inhibitors would work synergistically with the existing nucleos(t)ide analogs because the two classes of drugs target physically distinct active sites on the viral polymerase protein. […] RNAseH inhibitors from two different chemical classes were employed, compound #1 [2-hydroxyisoquinoline-1,3(2H,4H)-dione], an HID, and #46 (β-thujaplicinol), an α-hydroxytropolone, were tested. Chou-Talaly analysis yields a combination index (CI). CI values <1.0 indicate synergy, CIs of approximately 1.0 indicate additive interactions, and CI values >1.0 indicate antagonism. CI values are calculated at various efficacy levels (EC50, EC75, EC90, and EC95), and a weighted CI value favoring higher efficacy levels is also generated. FIGS. 4A & 4B show the results of four experiments employing compound #1 and three with compound #46. […] Therefore, RNAseH inhibitors act strongly synergistically with an approved nucleos(t)ide analog drug against HBV.

HBV [2] = settings: HBV patients; cited from earlier work

Molecule | inhibition of HBV RNAseH (HBV RNAseH) | weighted combination index (CI) (HBV [1]) | sustained clinical improvement (HBV [2])
CC(C)c1ccc(O)c(=O)c(O)c1 [#46, β-thujaplicinol] | about 50% | 0.44±0.3 | 
Interferon α |  |  | 20-30 % of patients
